For test [1], the target named is S. pneumoniae Topoisomerase IV ATPase (ParE) (Streptococcus pneumoniae serotype 4, UniProt Q59961). Nature of the test: S. pneumoniae Topoisomerase IV ATPase inhibition. It is filed as biochemical. To be noted: values marked * are an average of two or more data points, read-out: % Inh (13 μM) of S. pneumoniae Topoisomerase IV ATPase. Put shortly: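 Phosphate release by ParE ATPase from S. pneumoniae read colorimetrically (malachite green, 650 nm), enzyme 1.25 nM, ATP 160 μM, salmon sperm DNA present, buffer 20 mM Tris pH 8.0 with 8 mM MgCl2. IC50 over 10 compound concentrations, EDTA (20 μM) and DMSO controls defining inhibition range.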

Test [2] has as its system Spy 838 (gram+). Nature of the test: Bacterial susceptibility testing in liquid media (MIC). Format: cell-based. Particulars: Streptococcus pyogenes; lowest concentration reducing growth by 80% or more; 37° C., 24 hrs. An excerpt:
(§1) Compounds may be tested for antimicrobial activity by susceptibility testing in liquid media. Compounds may be dissolved in dimethylsulfoxide and tested in 10 doubling dilutions in the susceptibility assays. The organisms used in the assay may be grown overnight on suitable agar media and then suspended in a liquid medium appropriate for the growth of the organism. The suspension can be a 0.5 McFarland and a further 1 in 10 dilution can be made into the same liquid medium to prepare the final organism suspension in 100 μL. Plates can be incubated under appropriate conditions at 37° C. for 24 hrs prior to reading. The Minimum Inhibitory Concentration (MIC) may be determined as the lowest drug concentration able to reduce growth by 80% or more.

Test [3] deals with Spn 548 (gram+). The description is as above. It is filed as cell-based. To be noted: Streptococcus pneumoniae; lowest concentration reducing growth by 80% or more; 37° C., 24 hrs.
Source text: as §1

Test [4] relates to Mca 445 (gram−). The description is as above. Particulars: Moraxella catarrhalis; lowest concentration reducing growth by 80% or more; 37° C., 24 hrs. Format: cell-based.
Source text: as §1

≈ marks a conversion by molar mass, not a printed value.

Sequence of S. pneumoniae Topoisomerase IV ATPase (ParE) (Q59961 whole entry): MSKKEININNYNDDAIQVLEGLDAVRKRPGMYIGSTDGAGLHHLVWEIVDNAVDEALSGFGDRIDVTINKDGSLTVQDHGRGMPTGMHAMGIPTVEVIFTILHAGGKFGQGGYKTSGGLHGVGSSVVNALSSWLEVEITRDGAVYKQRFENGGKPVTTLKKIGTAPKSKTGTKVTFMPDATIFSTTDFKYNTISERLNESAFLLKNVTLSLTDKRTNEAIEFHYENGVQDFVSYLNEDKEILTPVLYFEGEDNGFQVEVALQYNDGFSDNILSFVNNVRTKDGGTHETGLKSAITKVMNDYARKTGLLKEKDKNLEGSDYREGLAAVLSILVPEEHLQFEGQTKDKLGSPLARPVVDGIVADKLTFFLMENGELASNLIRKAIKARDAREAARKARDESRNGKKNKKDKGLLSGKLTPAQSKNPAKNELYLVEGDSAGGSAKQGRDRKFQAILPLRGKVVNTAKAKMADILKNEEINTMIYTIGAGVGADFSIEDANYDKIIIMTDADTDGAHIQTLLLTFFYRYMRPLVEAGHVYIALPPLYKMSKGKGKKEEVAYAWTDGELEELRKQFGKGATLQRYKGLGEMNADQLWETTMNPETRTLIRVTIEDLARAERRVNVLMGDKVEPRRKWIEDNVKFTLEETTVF

`Fc1ccc(Nc2ncc(-c3cncnc3)c(NCCc3ccncc3)n2)cc1Cl` [Example 46, N^2-(3-chloro-4-fluorophenyl)-N^4-(2-pyridin-4-ylethyl)-5-pyrimidin-5-ylpyrimidine-2,4-diamine]: the inhibition at 13 µM in test [1] was 93.5%. The MIC in test [2] amounted to 8.84 µM (≈ 3.73 µg/mL); in test [3], 3.13 µM (≈ 1.32 µg/mL); in test [4] it was 3.13 µM (≈ 1.32 µg/mL).

On to `O=C(O)c1ccc(-c2cnc(Nc3ccc(F)c(Cl)c3)nc2N2CCOCC2)s1` [Example 176, 5-(2-(3-chloro-4-fluorophenylamino)-4-morpholinopyrimidin-5-yl)thiophene-2-carboxylic acid], for which the inhibition at 13 µM in test [1] amounted to 89%. Further, the results for the MIC in test [2], in test [3] and in test [4] were 12.5 µM (≈ 5.44 µg/mL), 6.25 µM (≈ 2.72 µg/mL) and 0.78 µM (≈ 0.339 µg/mL), respectively.

On to `NCCCNc1nc(Nc2ccc(F)c(Cl)c2)ncc1-c1cncnc1` [Ex 211], for which the inhibition at 13 µM in test [1] was 76.6%. Further, the MIC in test [2] was found to be 25 µM (≈ 9.35 µg/mL); in test [3], 25 µM (≈ 9.35 µg/mL); in test [4] it was 12.5 µM (≈ 4.67 µg/mL).

Consider `COc1cc(C)cc(Nc2ncc(-c3cc(C(=O)O)c(=O)n(C)c3)c(-n3ccc(C(F)(F)F)n3)n2)c1` [Example 859, 5-{2-[(3-methoxy-5-methylphenyl)amino]-4-[3-(trifluoromethyl)-1H-pyrazol-1-yl]pyrimidin-5-yl}-1-methyl-2-oxo-1,2-dihydropyridine-3-carboxylic acid], for which the inhibition at 13 µM in test [1] worked out at 100%.

Take `CN(C)CCCNc1nc(Nc2ccc(F)c(Cl)c2)ncc1-c1cn([Si](C)(C)C(C)(C)C)c2ccccc12` [Example 16, 5-[1-(tert-butyldimethylsilyl)-1H-indol-3-yl]-N^2-(3-chloro-4-fluorophenyl)-N^4-[3-(dimethylamino)propyl] pyrimidin-2,4-diamine]: the inhibition at 13 µM in test [1] came out at 55.3%.

For `COc1cc(Nc2ncc(-c3cncc(C(=O)O)c3)c(-n3ccc(C(F)(F)F)n3)n2)cc(OC)c1` [Example 635, 5-{2-[(3,5-Dimethoxyphenyl)amino]-4-[3-(trifluoromethyl)-1H-pyrazol-1-yl]pyrimidin-5-yl}pyridine-3-carboxylic acid], in test [1], the inhibition at 13 µM was 100%.

As for `COc1cc(Nc2ncc(-c3cccc(/C=C/C(=O)O)c3)c(-n3ccc(C(F)(F)F)n3)n2)cc(S(C)(=O)=O)c1` [Example 659, (2E)-3-[3-(2-{[3-methoxy-5-(methylsulfonyl)phenyl]amino}-4-[3-(trifluoromethyl)-1H-pyrazol-1-yl]pyrimidin-5-yl)phenyl]prop-2-enoic acid], in test [1], the inhibition at 13 µM stood at 100%.

Turning to `CCOC(=O)c1cncc(-c2cnc(Nc3ccc(F)c(Cl)c3)nc2NCC2CCCO2)c1` (stereo not drawn) [Example 108, ethyl 5-[2-[(3-chloro-4-fluorophenyl)amino]-4-(oxolan-2-ylmethylamino)pyrimidin-5-yl]pyridine-3-carboxylate], the inhibition at 13 µM in test [1] is -18.1%.

In the case of `COc1cc(Nc2ncc(-c3cccc(/C=C/C(=O)O)c3)c(N3CCOCC3)n2)ccc1F` [Example 452], in test [1], the inhibition at 13 µM came out at 76%.

For `CCOC(=O)c1cncc(-c2cnc(Nc3ccc(F)c(Cl)c3)nc2NCCN(C)C)c1` [Example 93], the inhibition at 13 µM in test [1] amounted to 79.6%.

Consider `CCOC(=O)c1cncc(-c2cnc(Nc3ccc(F)c(Cl)c3)nc2N2CCCC2C)c1` (stereo not drawn) [Example 124, ethyl 5-[2-[(3-chloro-4-fluorophenyl)amino]-4-(2-methylpyrrolidin-1-yl)pyrimidin-5-yl]pyridine-3-carboxylate], for which, in test [1], the inhibition at 13 µM was 31.3%.

On to `O=C(O)c1cncc(-c2cnc(Nc3ccc(F)c(Cl)c3)nc2NCCc2c[nH]cn2)c1` [Example 257, 5-(2-[(3-chloro-4-fluorophenyl)amino]-4-{[2-(1H-imidazol-4-yl)ethyl]amino}pyrimidin-5-yl)pyridine-3-carboxylic acid], for which the inhibition at 13 µM in test [1] amounted to 83.8%.

Broadly, the MIC is the lowest concentration that inhibits growth of the organism. A higher MIC goes with weaker potency.

(Values after US20100137313A1 (ASTRAZENECA AB, priority 2008, published 2010).)
